Experimental data from patent US9738655B2, “Tetrahydroisoquinolines containing substituted azoles as factor XIa inhibitors” (BRISTOL-MYERS SQUIBB COMPANY, priority 2013, dated 2017).
Counter-ions that a name gives are not always drawn.

Legend:
[1] = target: purified human Factor XIa (Homo sapiens (Human), UniProt P03951); assay: Factor XIa enzyme inhibition assay (chromogenic substrate S-2366); conditions: read-out: Factor XIa Ki; measured at 25° C.
[2] = target: purified human plasma kallikrein (Homo sapiens (Human), UniProt P03952); assay: Plasma kallikrein enzyme inhibition assay (chromogenic substrate S-2302); assay type: biochemical
Chain of purified human plasma kallikrein (P03952 391-638): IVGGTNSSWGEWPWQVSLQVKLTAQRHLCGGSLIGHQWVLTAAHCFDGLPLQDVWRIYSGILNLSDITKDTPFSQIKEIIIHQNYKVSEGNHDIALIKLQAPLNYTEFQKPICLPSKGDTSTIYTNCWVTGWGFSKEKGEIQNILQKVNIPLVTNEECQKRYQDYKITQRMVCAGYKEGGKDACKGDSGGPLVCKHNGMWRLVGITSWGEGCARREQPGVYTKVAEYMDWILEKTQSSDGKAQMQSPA
Chain of purified human plasma kallikrein (P03952 20-390 partner): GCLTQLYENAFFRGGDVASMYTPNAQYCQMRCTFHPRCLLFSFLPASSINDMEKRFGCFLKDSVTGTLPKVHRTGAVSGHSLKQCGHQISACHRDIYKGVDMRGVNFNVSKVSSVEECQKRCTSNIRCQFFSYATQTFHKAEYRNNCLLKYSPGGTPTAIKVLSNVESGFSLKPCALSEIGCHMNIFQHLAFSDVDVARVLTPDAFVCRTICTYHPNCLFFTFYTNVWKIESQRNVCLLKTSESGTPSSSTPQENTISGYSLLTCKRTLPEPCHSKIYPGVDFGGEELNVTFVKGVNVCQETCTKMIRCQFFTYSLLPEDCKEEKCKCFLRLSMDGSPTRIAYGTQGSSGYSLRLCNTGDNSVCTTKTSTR

[3] = measured at 25° C. (no asterisk)

Chain of purified human Factor XIa (P03951 388-625): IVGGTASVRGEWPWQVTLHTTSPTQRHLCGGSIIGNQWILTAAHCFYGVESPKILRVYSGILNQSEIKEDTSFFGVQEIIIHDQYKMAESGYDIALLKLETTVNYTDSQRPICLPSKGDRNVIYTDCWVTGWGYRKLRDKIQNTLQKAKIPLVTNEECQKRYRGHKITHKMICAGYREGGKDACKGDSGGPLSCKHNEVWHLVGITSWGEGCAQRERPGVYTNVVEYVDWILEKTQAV
Chain of purified human Factor XIa (P03951 19-387 partner): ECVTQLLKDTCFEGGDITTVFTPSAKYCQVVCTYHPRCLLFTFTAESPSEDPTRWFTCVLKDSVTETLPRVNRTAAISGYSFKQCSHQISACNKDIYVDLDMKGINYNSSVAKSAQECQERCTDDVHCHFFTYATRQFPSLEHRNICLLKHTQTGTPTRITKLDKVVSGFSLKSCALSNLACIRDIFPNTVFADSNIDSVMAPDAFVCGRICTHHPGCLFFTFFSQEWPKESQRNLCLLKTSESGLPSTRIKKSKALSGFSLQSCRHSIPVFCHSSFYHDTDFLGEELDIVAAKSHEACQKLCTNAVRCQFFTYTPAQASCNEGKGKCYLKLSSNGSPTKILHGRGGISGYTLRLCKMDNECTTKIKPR

Row | SMILES | Ki [1] | Ki ([2]; measured at 37° C. (*)) | Ki [2, 3]
1 | COC1CCN(c2cccc3c2CCN(C(=O)c2cnn(-c4ccnc(C)c4)c2)C3C(=O)Nc2ccc(C(=O)O)cc2)CC1 (stereo not drawn) [Example 327, 4-(5-(4-Methoxypiperidin-1-yl)-2-(1-(2-methylpyridin-4-yl)-1H-pyrazole-4-carbonyl)-1,2,3,4-tetrahydroisoquinoline-1-carboxamido)benzoic acid, TFA salt] | 816 nM | > 6000 nM | –
2 | COC1CCN(c2cccc3c2CCN(C(=O)c2cnn(-c4cccc(Cl)c4)c2)C3C(=O)Nc2ccc(C(=O)O)cc2)CC1 (stereo not drawn) [Example 329, 4-(2-(1-(3-chlorophenyl)-1H-pyrazole-4-carbonyl)-5-(4-methoxypiperidin-1-yl)-1,2,3,4-tetrahydroisoquinoline-1-carboxamido)benzoic acid, TFA salt] | 26.6 nM | – | 229 nM
3 | COC1CCN(c2cccc3c2CCN(C(=O)c2cnn(-c4cccnc4)c2)C3C(=O)Nc2ccc(C(=O)O)cc2)CC1 (stereo not drawn) [Example 330, 4-(5-(4-methoxypiperidin-1-yl)-2-(1-(pyridin-3-yl)-1H-pyrazolc-4-carbonyl)-1,2,3,4-tetrahydroisoquinoline-1-carboxamido)benzoic acid, 2 TFA salt] | 3510 nM | > 6000 nM | –
4 | COC1CCN(c2cccc3c2CCN(C(=O)c2cnn(-c4ccc5nonc5c4)c2)C3C(=O)Nc2ccc(C(=O)O)cc2)CC1 (stereo not drawn) [Example 331, 4-(2-(1-(benzo[c][1,2,5]oxadiazol-5-yl)-1H-pyrazole-4-carbonyl)-5-(4-methoxypiperidin-1-yl)-1,2,3,4-tetrahydroisoquinoline-1-carboxamido)benzoic acid] | 7050 nM | > 6000 nM | –
5 | C=C(C)c1cccc2c1CCN(C(=O)c1cn(-c3cccc(Cl)c3F)nn1)C2C(=O)Nc1ccc(C(=O)O)cc1 (stereo not drawn) [Example 333, 4-(2-(1-(3-Chloro-2-fluorophenyl)-1H-1,2,3-triazole-4-carbonyl)-5-(prop-1-en-2-yl)-1,2,3,4-tetrahydroisoquinoline-1-carboxamido)benzoic acid] | 18.2 nM | – | 61.3 nM
6 | Nc1cccc2c1CCN(C(=O)c1cn(-c3cccc(Cl)c3F)nn1)C2C(=O)Nc1ccc(C(=O)O)cc1 (stereo not drawn) [Example 334, 4-(5-Amino-2-(1-(3-chloro-2-fluorophenyl)-1H-1,2,3-triazole-4-carbonyl)-1,2,3,4-tetrahydroisoquinoline-1-carboxamido)benzoic acid, TFA salt] | 10.6 nM | – | 6.26 nM
7 | COC1CCN(c2cccc3c2CCN(C(=O)c2cn(-c4cccc(Cl)c4F)nn2)C3C(=O)Nc2ccc(C(N)=O)cc2)CC1 (stereo not drawn) [Example 335, N-(4-Carbamoylphenyl)-2-(1-(3-chloro-2-fluorophenyl)-1H-1,2,3-triazole-4-carbonyl)-5-(4-methoxypiperidin-1-yl)-1,2,3,4-tetrahydroisoquinoline-1-carboxamide, TFA salt] | < 5 nM | 96.9 nM | –
8 | CC(C)c1nnc2n1CCN(c1cccc3c1CCN(C(=O)[C@H]1CC(c4cccc(Cl)c4F)=NO1)[C@@H]3C(=O)Nc1ccc(C(=O)O)cc1)C2 [Example 336, 4-((S)-2-((R)-3-(3-Chloro-2-fluorophenyl)-4,5-dihydroisoxazole-5-carbonyl)-5-(3-isopropyl-5,6-dihydro-[1,2,4]triazolo[4,3-a]pyrazin-7(8H)-yl)-1,2,3,4-tetrahydroisoquinoline-1-carboxamido)benzoic acid, TFA salt] | < 5 nM | 1.4 nM | –
9 | CC(C)c1nnc2n1CCN(c1cccc3c1CCN(C(=O)[C@H]1CC(c4cccc(Cl)c4F)=NO1)[C@H]3C(=O)Nc1ccc(C(=O)O)cc1)C2 [Example 337, 4-((R)-2-((R)-3-(3-Chloro-2-fluorophenyl)-4,5-dihydroisoxazole-5-carbonyl)-5-(3-isopropyl-5,6-dihydro-[1,2,4]triazolo[4,3-a]pyrazin-7(8H)-yl)-1,2,3,4-tetrahydroisoquinoline-1-carboxamido)benzoic acid, TFA salt] | 27.9 nM | 68.1 nM | –
